One block for each compound: values may come before it.
What was measured:
[1] = molecular target: T1, PARP15 (Homo sapiens, UniProt Q460N3); experiment: MLISA inhibition of PARP15-catalyzed automodification; assay type: biochemical; conditions: for inhibition effects on PARP15 activity: at concentrations up to 100 μM
T1 sequence (Q460N3 481-678): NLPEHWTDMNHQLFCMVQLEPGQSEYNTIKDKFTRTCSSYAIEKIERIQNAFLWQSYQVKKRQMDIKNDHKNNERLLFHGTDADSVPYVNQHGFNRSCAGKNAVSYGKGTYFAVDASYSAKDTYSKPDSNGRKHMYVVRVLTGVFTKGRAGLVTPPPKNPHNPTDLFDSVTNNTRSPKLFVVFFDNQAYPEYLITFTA

[2] = system: PARP15; conditions: read-out: Km of PARP15 for automodification; reported previously; cited from earlier work

SMILES: Oc1cccc2c(O)nccc12 [1,5-Isoquinolinediol, 1,5-isoquinolinediol]
IC50 [1]: 8.5 ± 2.7 µM

SMILES: O=c1[nH]c2ccccc2c2ccccc12 [6(5H)-Phenanthridinone, 6(5H)-phenanthridinone]
IC50 [1]: 1.5 ± 0.5 µM

SMILES: NC(=O)c1ccc[n+]([C@@H]2O[C@H](COP(=O)([O-])OP(=O)(O)OC[C@H]3O[C@@H](n4cnc5c(N)ncnc54)[C@H](O)[C@@H]3O)[C@@H](O)[C@H]2O)c1 [NAD^+, nicotinamide adenine dinucleotide]
Km [2]: 5.8 ± 1.9 µM

The next lines start with the values.

inhibition effects on PARP15 activity [1]: no significant inhibition effects
SMILES: Nc1ncnc2[nH]cnc12 [Adenine, adenine]

pIC50 ([1]; PARP15, 500 nM enzyme, 500 μM NAD+): 5.1
SMILES: Cc1nc2c(c(=O)[nH]1)CSCC2 [DR2313]

inhibition effects on PARP15 activity [1]: no significant inhibition effects
SMILES: CN(C)c1ccc(O)c2c1C[C@H]1C[C@H]3[C@H](N(C)C)C(O)=C(C(N)=O)C(=O)[C@@]3(O)C(O)=C1C2=O [Minocin]

inhibition effects on PARP15 activity [1]: no significant inhibition effects
SMILES: Oc1nc(-c2ccc(C(F)(F)F)cc2)nc2c1CSCC2 [XAV939]
